Measurements as given in US7192746B2, “α-Isomaltosyltransferase, process for producing the same and use thereof” (Kabushiki Kaisha Hayashibara Seibutsu Kagaku Kenkyujo, priority 2000, dated 2007).
Like-named read-outs stand apart in the source and are kept apart here.

Key:
[1] = system: α-isomaltosyl-transferring enzyme from Arthrobacter globiformis A19; test: Specificity to transferring acceptor; type: biochemical; conditions: partially purified enzyme, panose as saccharide donor, 10 units/g substrate, 3.2% (w/v), 30° C., pH 6.0, 24 hours
Outline: (§1)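 Panose donor + test saccharide (equimolar-equal conc.), 3.2% (w/v) total, 10 units/g substrate enzyme; 30° C., pH 6.0, 24 h. GLC (FID) for mono/disaccharide acceptors, HPLC (RI) for tri- and larger. Scored +/−.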

[2] = system: α-isomaltosyl-transferring enzyme from Arthrobacter ramosus S1; test: Specificity to transferring acceptor; type: biochemical; conditions: panose as saccharide donor, 10 units/g substrate, 3.2% (w/v), 30° C., pH 6.0, 24 hours
Outline: as §1

[3] = system: α-isomaltosyl-transferring enzyme from Bacillus globisporus C11; test: Specificity to transferring acceptor; type: biochemical; conditions: panose as saccharide donor, 10 units/g substrate, 3.2% (w/v), 30° C., pH 6.0, 24 hours
Outline: as §1

[4] = system: α-isomaltosyl-transferring enzyme from Bacillus globisporus C9; test: Specificity to transferring acceptor; type: biochemical; conditions: panose as saccharide donor, 10 units/g substrate, 3.2% (w/v), 30° C., pH 6.0, 24 hours
Outline: as §1

[5] = system: α-isomaltosyl-transferring enzyme from Bacillus globisporus N75; test: Specificity to transferring acceptor; type: biochemical; conditions: panose as saccharide donor, 10 units/g substrate, 3.2% (w/v), 30° C., pH 6.0, 24 hours
Outline: as §1

salivary amylase [6] = biological target: T1, salivary amylase (Homo sapiens, UniProt P0DUB6); test: Digestion test in vitro
T1 sequence (P0DUB6 16-511): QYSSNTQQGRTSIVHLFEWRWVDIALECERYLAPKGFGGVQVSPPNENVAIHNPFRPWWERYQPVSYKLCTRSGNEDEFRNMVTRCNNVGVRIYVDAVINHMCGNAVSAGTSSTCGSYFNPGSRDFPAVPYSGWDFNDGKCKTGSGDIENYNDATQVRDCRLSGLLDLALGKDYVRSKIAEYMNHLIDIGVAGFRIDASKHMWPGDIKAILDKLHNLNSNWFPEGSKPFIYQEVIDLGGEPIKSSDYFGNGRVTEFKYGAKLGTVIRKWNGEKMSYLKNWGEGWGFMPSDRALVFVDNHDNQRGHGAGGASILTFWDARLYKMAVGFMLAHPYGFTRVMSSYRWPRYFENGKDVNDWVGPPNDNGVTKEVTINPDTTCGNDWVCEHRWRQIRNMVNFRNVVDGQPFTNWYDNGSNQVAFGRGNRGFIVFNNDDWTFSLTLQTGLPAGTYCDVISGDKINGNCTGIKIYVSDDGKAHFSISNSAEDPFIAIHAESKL

salivary amylase [7] = biological target: T1, salivary amylase

Structure (SMILES)	Product of transferring reaction, Enzyme of Stain A19 [1]	Product of transferring reaction, Enzyme of Strain S1 [2]	Product of transferring reaction, Enzyme of Strain C11 [3]	Product of transferring reaction, Enzyme of Strain C9 [4]	Product of transferring reaction, Enzyme of Strain N75 [5]	Decomposition percentage by digestive enzyme (salivary amylase [6]) [%]	Decomposition percentage by digestive enzyme (salivary amylase [7]) [%]
OC[C@@H](O)[C@@H](O[C@H]1O[C@H](CO)[C@@H](O)[C@H](O)[C@H]1O)[C@H](O)[C@@H](O)CO [Maltitol, maltitol]	+ (a saccharide-transferred product was formed in an amount of over one percent but below 10% to the total sugars)	+ (a saccharide-transferred product was formed in an amount of over one percent but below 10% to the total sugars)	+ (a saccharide-transferred product was formed in an amount of over one percent but below 10% to the total sugars)	+ (a saccharide-transferred product was formed in an amount of over one percent but below 10% to the total sugars)	+ (a saccharide-transferred product was formed in an amount of over one percent but below 10% to the total sugars)	0.0	
OCC1OC2OCC3O[C@H](O[C@H]4C(O)C(CO)OC(OCC5O[C@H](O[C@@H](C1O)C2O)C(O)C(O)[C@@H]5O)C4O)C(O)C(O)[C@@H]3O (stereo partly drawn) [Cyclotetrasaccharide, cyclo{→6)-α-D-glucopyranosyl-(1→3)-α-D-glucopyranosyl-(1→6)-α-D-glucopyranosyl-(1→3)-α-D-glucopyranosyl-(1→}]							0.0
